Data as given in BindingDB's records for doi:10.7270/Q22J698B (NMMLSC, 2010).

Molecular target: Cell division control protein 42 homolog (Homo sapiens, UniProt P60953)
Assay: inhibition of fluorescent GTP binding to constitutively active Cdc42 – biochemical, multiplex bead flow cytometry, Bodipy-FL-GTP, dose response (AID 1333)

Sequence of Cell division control protein 42 homolog (P60953 whole entry): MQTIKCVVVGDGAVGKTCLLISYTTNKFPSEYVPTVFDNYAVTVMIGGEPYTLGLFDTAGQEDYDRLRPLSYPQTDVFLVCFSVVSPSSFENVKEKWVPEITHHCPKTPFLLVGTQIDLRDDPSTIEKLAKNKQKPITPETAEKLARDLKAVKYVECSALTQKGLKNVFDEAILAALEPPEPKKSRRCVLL

CC1(C)Cc2c(sc(NC(=S)NC(=O)c3ccccc3)c2C(=O)O)CO1 [2-(benzoylcarbamothioylamino)-5,5-dimethyl-4,7-dihydrothieno[2,3-c]pyran-3-carboxylic acid] was tested, and the EC50 was 92 nM.
